Where two headings read alike, the source gives them in different places.
Tested on: HCV 1b genotype
Assay: HCV Replicon assay (HCV-neo replicon cells, wild-type)
Format: cell-based
Details: HCV 1b genotype replicon, read-out: 1b EC50 (in μM or range)
Method: An HCV Replicon assay was utilized in the present disclosure, and was prepared, conducted and validated as described in commonly owned PCT/US2006/022197 and in O′Boyle et. al. Antimicrob Agents Chemother, 2005 April; 49(4):1346-53. Assay methods incorporating luciferase reporters have also been used as described (Apath.com).
HCV-neo replicon cells and replicon cells containing mutations in the NS5A region were used to test the currently described family of compounds. The compounds were determined to have more than 10-fold less inhibitory activity on cells containing mutations than wild-type cells. Thus, the compounds of the present disclosure can be effective in inhibiting the function of the HCV NS5A protein and are understood to be as effective in combinations as previously described in application PCT/US2006/022197 and commonly owned WO/04014852. Further, the compounds of the present disclosure can be effective against the HCV 1b genotype. It should also be understood that the compounds of the present disclosure can inhibit multiple genotypes of HCV. […] In one embodiment, compounds of the present disclosure are inhibitory versus 1a, 1b, 2a, 2b, 3a, 4a, and 5a genotypes.

[1] = Hepatitis C virus, range class A-D

Row | SMILES | EC50 [1] | other results
1 | CC(C)(C)OC(=O)N[C@H](C(=O)N1CCC[C@H]1C(=O)Nc1ccc(C#Cc2ccc(NC(=O)[C@@H]3CCCN3C(=O)[C@@H](NC(=O)OC(C)(C)C)c3ccccc3)cc2)cc1)c1ccccc1 [VN22, Step a, di-tert-butyl(1,2-ethynediylbis(4,1-phenylenecarbamoyl(2S)-2,1-pyrrolidinediyl((1S)-2-oxo-1-phenyl-2,1-ethanediyl)))biscarbamate] | < 4.57 nM | –
2 | CN1CCN(C(C(=O)N2CCC[C@H]2C(=O)Nc2ccc(C#Cc3ccc(NC(=O)[C@@H]4CCCN4C(=O)C(c4ccccc4)N4CCN(C)CC4)cc3)cc2)c2ccccc2)CC1 (stereo partly drawn) [VN43, (2S,2′S)-N,N′-(1,2-ethynediyldi-4,1-phenylene)bis(1-((4-methyl-1-piperazinyl)(phenyl)acetyl)-2-pyrrolidinecarboxamide)] | – | EC50 (Hepatitis C virus): 0.015 nM
3 | CN1Cc2ccccc2C1C(=O)N1CCC[C@H]1C(=O)Nc1ccc(C#Cc2ccc(NC(=O)[C@@H]3CCCN3C(=O)C3c4ccccc4CN3C)cc2)cc1 (stereo partly drawn) [VN40, (2S,2′S)-N,N′-(1,2-ethynediyldi-4,1-phenylene)bis(1-((2-methyl-2,3-dihydro-1H-isoindol-1-yl)carbonyl)-2-pyrrolidinecarboxamide)] | – | EC50 (range class A-D): 4.57 to 99 nM
4 | O=C(Nc1ccc(C#Cc2ccc(NC(=O)[C@@H]3CCCN3C(=O)Cc3ccccc3)cc2)cc1)[C@@H]1CCCN1C(=O)Cc1ccccc1 [Example D2, (2S,2′S)-N,N′-(1,2-ethynediyldi-4,1-phenylene)bis(1-(phenylacetyl)-2-pyrrolidinecarboxamide)] | < 4.57 nM | –
5 | CC(C)(C)OC(=O)N[C@@H](C(=O)N1CCC[C@H]1C(=O)Nc1ccc(C#Cc2ccc(NC(=O)[C@@H]3CCCN3C(=O)[C@H](NC(=O)OC(C)(C)C)c3ccccc3)cc2)cc1)c1ccccc1 [VN23, Step a, di-tert-butyl(1,2-ethynediylbis(4,1-phenylenecarbamoyl(2S)-2,1-pyrrolidinediyl((1R)-2-oxo-1-phenyl-2,1-ethanediyl)))biscarbamate] | < 4.57 nM | –
6 | O=C(Nc1ccc(C#Cc2ccc(NC(=O)[C@@H]3CCCN3C(=O)C3(c4ccccc4)CCCC3)cc2)cc1)[C@@H]1CCCN1C(=O)C1(c2ccccc2)CCCC1 [VN5, (2S,2′S)-N,N′-(1,2-ethynediyldi-4,1-phenylene)bis(1-((1-phenylcyclopentyl)carbonyl)-2-pyrrolidinecarboxamide)] | 4.57 to 99 nM | –
7 | C[C@@](O)(C(=O)N1CCC[C@H]1C(=O)Nc1ccc(C#Cc2ccc(NC(=O)[C@@H]3CCCN3C(=O)[C@@](C)(O)c3ccccc3)nc2)cn1)c1ccccc1 [Example D51, (2S,2′S)-N,N′-(1,2-ethynediyldi-5,2-pyridinediyl)bis(1-((2S)-2-hydroxy-2-phenylpropanoyl)-2-pyrrolidinecarboxamide)] | < 4.57 nM | –
8 | O=C(Nc1ccc(C#Cc2ccc(NC(=O)[C@@H]3CCCN3C(=O)OCc3ccccc3)cc2)cc1)C1CC1 [Example D18, Benzyl (2S)-2-((4-((4-((cyclopropylcarbonyl)amino)phenyl)ethynyl)phenyl)carbamoyl)-1-pyrrolidinecarboxylate] | 100 to 999 nM | –
9 | CN1CCc2ccccc2[C@@H]1C(=O)N1CCC[C@H]1C(=O)Nc1ccc(C#Cc2ccc(NC(=O)[C@@H]3CCCN3C(=O)[C@H]3c4ccccc4CCN3C)cc2)cc1 [VN32, (R,2S,2′S)-N,N′-(4,4′-(ethyne-1,2-diyl)bis(4,1-phenylene))bis(1-((R)-2-methyl-1,2,3,4-tetrahydroisoquinoline-1-carbonyl)pyrrolidine-2-carboxamide)] | 100 to 999 nM | –
10 | O=C(Nc1ccc(C#Cc2ccc(NC(=O)[C@@H]3CCCN3C(=O)OCc3ccccc3)cc2)cc1)[C@H]1CCCO1 [Example D21, Benzyl (2S)-2-((4-((4-(((2R)-tetrahydro-2-furanylcarbonyl)amino)phenyl)ethynyl)phenyl)carbamoyl)-1-pyrrolidinecarboxylate] | 100 to 999 nM | –
11 | CC(=O)N1CCN(C(C(=O)N2CCC[C@H]2C(=O)Nc2ccc(C#Cc3ccc(NC(=O)[C@@H]4CCCN4C(=O)C(c4ccccc4)N4CCN(C(C)=O)CC4)cc3)cc2)c2ccccc2)CC1 (stereo partly drawn) [VN49, (2S,2′S)-N,N′-(1,2-ethynediyldi-4,1-phenylene)bis(1-((4-acetyl-1-piperazinyl)(phenyl)acetyl)-2-pyrrolidinecarboxamide)] | – | EC50 (range class A-D): 4.57 to 99 nM
12 | O=C(Nc1ccc(C#Cc2ccc(NC(=O)[C@@H]3CCCN3C(=O)/C=C/c3ccccc3)cn2)nc1)[C@@H]1CCCN1C(=O)/C=C/c1ccccc1 [Example D53, (2S,2′S)-N,N′-(1,2-ethynediyldi-2,5-pyridinediyl)bis(1-((2E)-3-phenyl-2-propenoyl)-2-pyrrolidinecarboxamide)] | – | EC50 (Hepatitis C virus): 2730 nM
13 | O=C(Nc1ccc(C#Cc2ccc(NC(=O)[C@@H]3CCCN3C(=O)C3(c4ccccc4)CC3)cc2)cc1)[C@@H]1CCCN1C(=O)C1(c2ccccc2)CC1 [VN4, (2S,2′S)-N,N′-(1,2-ethynediyldi-4,1-phenylene)bis(1-((1-phenylcyclopropyl)carbonyl)-2-pyrrolidinecarboxamide)] | < 4.57 nM | –
14 | COC(=O)N[C@@H](C(=O)N1CCC[C@H]1C(=O)Nc1ccc(C#Cc2ccc(NC(=O)[C@@H]3CCCN3C(=O)[C@H](NC(=O)OC)c3ccccc3)cc2)cc1)c1ccccc1 [VN55, Dimethyl (1,2-ethynediylbis(4,1-phenylenecarbamoyl(2S)-2,1-pyrrolidinediyl((1R)-2-oxo-1-phenyl-2,1-ethanediyl)))biscarbamate] | – | EC50: 0.013 nM
15 | O=C(Nc1ccc(C#Cc2ccc(NC(=O)[C@@H]3CCCN3C(=O)Cc3ccccc3)nc2)cn1)[C@@H]1CCCN1C(=O)Cc1ccccc1 [Example D48, (2S,2′S)-N,N′-(1,2-ethynediyldi-5,2-pyridinediyl)bis(1-(phenylacetyl)-2-pyrrolidinecarboxamide)] | < 4.57 nM | –
16 | CC(=O)N1CCC[C@H]1C(=O)Nc1ccc(C#Cc2ccc(NC(=O)C3CC(=O)N(CCc4cccs4)C3)cc2)cc1 (stereo partly drawn) [Example D9, 1-Acetyl-N-(4-((4-(((5-oxo-1-(2-(2-thienyl)ethyl)-3-pyrrolidinyl)carbonyl)amino)phenyl)ethynyl)phenyl)-L-prolinamide] | – | EC50 (Hepatitis C virus): 2420 nM
17 | O=C(Nc1ccc(C#Cc2ccc(NC(=O)C3CC(=O)N(CCc4cccs4)C3)cc2)cc1)C1CC(=O)N(CCc2cccs2)C1 (stereo not shown) [Example D10, N,N′-(1,2-ethynediyldi-4,1-phenylene)bis(5-oxo-1-(2-(2-thienyl)ethyl)-3-pyrrolidinecarboxamide)] | 1000 to 10000 nM | –
18 | CN1C[C@@H]2C[C@H]1CN2C(C(=O)N1CCC[C@H]1C(=O)Nc1ccc(C#Cc2ccc(NC(=O)[C@@H]3CCCN3C(=O)C(c3ccccc3)N3C[C@@H]4C[C@H]3CN4C)cc2)cc1)c1ccccc1 (stereo partly drawn) [VN18, (2S,2′S)-N,N′-(1,2-ethynediyldi-4,1-phenylene)bis(1-(((1S,4S)-5-methyl-2,5-diazabicyclo[2.2.1]hept-2-yl)(phenyl)acetyl)-2-pyrrolidinecarboxamide)] | – | EC50: 130 nM
19 | CC(C)(C)OC(=O)Nc1ccc(C#Cc2ccc(NC(=O)[C@@H]3CCCN3C(=O)[C@H](O)c3ccccc3)cc2)cc1 [Example D60.1, tert-Butyl 4-((4-((S)-1-((R)-2-hydroxy-2-phenylacetyl)pyrrolidine-2-carboxamido)phenyl)ethynyl)phenylcarbamate] | 100 to 999 nM | –
20 | O=C(Nc1ccc(C#Cc2ccc(NC(=O)C3CC(=O)N(Cc4ccc(Cl)cc4)C3)cc2)cc1)C1CC(=O)N(Cc2ccc(Cl)cc2)C1 (stereo not shown) [Example D14, N,N′-(1,2-ethynediyldi-4,1-phenylene)bis(1-(4-chlorobenzyl)-5-oxo-3-pyrrolidinecarboxamide)] | 1000 to 10000 nM | –
21 | CN(C)[C@@H](C(=O)N1CCC[C@H]1C(=O)Nc1ccc(C#Cc2ccc(NC(=O)[C@@H]3CCCN3C(=O)[C@@H](c3ccccc3)N(C)C)cc2)cc1)c1ccccc1 [VN23, (2S,2′S)-N,N′-(1,2-ethynediyldi-4,1-phenylene)bis(1-((2R)-2-(dimethylamino)-2-phenylacetyl)-2-pyrrolidinecarboxamide)] | < 4.57 nM | –
22 | CC(=O)N[C@@H](C(=O)N1CCC[C@H]1C(=O)Nc1ccc(C#Cc2ccc(NC(=O)[C@@H]3CCCN3C(=O)[C@H](NC(C)=O)c3ccccc3)cc2)cc1)c1ccccc1 [VN26, (2S,2′S)-N,N′-(1,2-ethynediyldi-4,1-phenylene)bis(1-((2R)-2-acetamido-2-phenylacetyl)-2-pyrrolidinecarboxamide)] | < 4.57 nM | –
23 | CN[C@H](C(=O)N1CCC[C@H]1C(=O)Nc1ccc(C#Cc2ccc(NC(=O)[C@@H]3CCCN3C(=O)[C@@H](NC)c3ccccc3)cc2)cc1)c1ccccc1 [VN31, (2S,2′S)-N,N′-(1,2-ethynediyldi-4,1-phenylene)bis(1-((2S)-2-(methylamino)-2-phenylacetyl)-2-pyrrolidinecarboxamide)] | < 4.57 nM | –
24 | CCCOC(=O)N[C@@H](C(=O)N1CCC[C@H]1C(=O)Nc1ccc(C#Cc2ccc(NC(=O)[C@@H]3CCCN3C(=O)[C@H](NC(=O)OCCC)c3ccccc3)cc2)cc1)c1ccccc1 [VN56, Dipropyl (1,2-ethynediylbis(4,1-phenylenecarbamoyl(2S)-2,1-pyrrolidinediyl((1R)-2-oxo-1-phenyl-2,1-ethanediyl)))biscarbamate] | – | EC50 (range class A-D): < 4.57 nM
25 | O=C(Nc1ccc(C#Cc2ccc(NC(=O)[C@@H]3CCCN3C(=O)CC3CC3)cc2)cc1)[C@@H]1CCCN1C(=O)CC1CC1 [Example D37, (2S,2′S)-N,N′-(1,2-ethynediyldi-4,1-phenylene)bis(1-(cyclopropylacetyl)-2-pyrrolidinecarboxamide)] | 4.57 to 99 nM | –
